Columns and labels:
[1] = target: Prostaglandin G/H synthase 1 (Homo sapiens) (UniProt P23219); test: Cyclooxygenase COX-1 Eurofins-Panlabs enzyme assay; set-up: substrate with concentration; conditions: Compound concentration 10.0 uM
[2] = target: Eukaryotic translation initiation factor 2-alpha kinase 1 (Homo sapiens) (UniProt Q9BQI3); test: HRI(h) Millipore kinase panel; conditions: Compound concentration 1.0 uM
[3] = target: Calcium/calmodulin-dependent protein kinase type 1B (Homo sapiens) (UniProt Q6P2M8); test: CaMKIbeta(h) Millipore kinase panel; conditions: Compound concentration 1.0 uM
[4] = target: T1, GABA-A receptor; anion channel (Rattus norvegicus) (UniProt O09028+P15431+P18506+P18508+P19969+P20236+P23574+P23576+P28471+P28473+P30191+P62813+P63079+P63138+Q91ZM7+Q9ES14); conditions: Compound concentration 10.0 uM
[5] = target: Mitogen-activated protein kinase kinase kinase 7 (Homo sapiens) (UniProt O43318); test: TAK1(h) Millipore kinase panel; conditions: Compound concentration 1.0 uM
[6] = target: Mitogen-activated protein kinase kinase kinase 10 (Homo sapiens) (UniProt Q02779); test: MLK2(h) Millipore kinase panel; conditions: Compound concentration 1.0 uM
[7] = target: G protein-coupled receptor kinase 6 (Homo sapiens) (UniProt P43250); test: GRK6(h) Millipore kinase panel; conditions: Compound concentration 1.0 uM
[8] = target: Tyrosine-protein kinase JAK1 (Homo sapiens) (UniProt P23458); test: JAK1(h) Millipore kinase panel; conditions: Compound concentration 1.0 uM
[9] = target: Mu-type opioid receptor (Homo sapiens) (UniProt P35372); conditions: Compound concentration 10.0 uM
[10] = target: Ribosomal protein S6 kinase beta-1 (Homo sapiens) (UniProt P23443); test: p70S6K(h) Millipore kinase panel; conditions: Compound concentration 1.0 uM
[11] = target: T1, GABA-A receptor; anion channel (Rattus norvegicus); conditions: Compound concentration 10.0 uM; remark: listed apart in the source
[12] = target: Protein kinase C eta type (Homo sapiens) (UniProt P24723); test: PKCeta(h) Millipore kinase panel; conditions: Compound concentration 1.0 uM
[13] = target: Beta-1 adrenergic receptor (Homo sapiens) (UniProt P08588); conditions: Compound concentration 10.0 uM
ATR/ATRIP (Homo sapiens) = ATR/ATRIP (Homo sapiens) (UniProt Q13535+Q8WXE1); test: ATR/ATRIP(h) Millipore kinase panel; format: protein-complex assay; conditions: Compound concentration 1.0 uM
[14] = target: Serine/threonine-protein kinase SIK1 (Homo sapiens) (UniProt P57059); test: SIK(h) Millipore kinase panel; conditions: Compound concentration 1.0 uM
[15] = target: Epithelial discoidin domain-containing receptor 1 (Homo sapiens) (UniProt Q08345); test: DDR1(h) Millipore kinase panel; conditions: Compound concentration 1.0 uM
[16] = target: Acetylcholinesterase (Homo sapiens) (UniProt P22303); conditions: Compound concentration 10.0 uM
[17] = target: Fibroblast growth factor receptor 3 (Homo sapiens) (UniProt P22607); test: FGFR3(h) Millipore kinase panel; conditions: Compound concentration 1.0 uM
[18] = target: Serine/threonine-protein kinase DCLK3 (Homo sapiens) (UniProt Q9C098); test: DCAMKL3(h) Millipore kinase panel; conditions: Compound concentration 1.0 uM
[19] = target: Leucine-rich repeat serine/threonine-protein kinase 2 (Homo sapiens) (UniProt Q5S007); test: LRRK2(h) Millipore kinase panel; conditions: Compound concentration 1.0 uM
[20] = target: Angiopoietin-1 receptor (Homo sapiens) (UniProt Q02763); test: Tie2(h) Millipore kinase panel; conditions: Compound concentration 1.0 uM
[21] = target: Ribosomal protein S6 kinase alpha-1 (Homo sapiens) (UniProt Q15418); test: Rsk1(h) Millipore kinase panel; conditions: Compound concentration 1.0 uM
[22] = target: Casein kinase II subunit alpha (Homo sapiens) (UniProt P68400); test: CK2alpha1(h) Millipore kinase panel; conditions: Compound concentration 1.0 uM
[23] = target: Serine/threonine-protein kinase MARK2 (Homo sapiens) (UniProt Q7KZI7); test: PAR-1Balpha(h) Millipore kinase panel; conditions: Compound concentration 1.0 uM
[24] = target: Serine/threonine-protein kinase TBK1 (Homo sapiens) (UniProt Q9UHD2); test: TBK1(h) Millipore kinase panel; conditions: Compound concentration 1.0 uM
[25] = target: Serine/threonine-protein kinase ULK3 (Homo sapiens) (UniProt Q6PHR2); test: ULK3(h) Millipore kinase panel; conditions: Compound concentration 1.0 uM
[26] = target: Serine/threonine-protein kinase mTOR (Homo sapiens) (UniProt P42345); test: mTOR(h) Millipore kinase panel; conditions: Compound concentration 1.0 uM
[27] = target: Casein kinase I isoform epsilon (Homo sapiens) (UniProt P49674); test: CK1epsilon(h) Millipore kinase panel; conditions: Compound concentration 1.0 uM
[28] = target: Cyclin-dependent kinase-like 1 (Homo sapiens) (UniProt Q00532); test: CDKL1(h) Millipore kinase panel; conditions: Compound concentration 1.0 uM
[29] = target: Serine/threonine-protein kinase LATS1 (Homo sapiens) (UniProt O95835); test: LATS1(h) Millipore kinase panel; conditions: Compound concentration 1.0 uM
[30] = target: Serine/threonine-protein kinase PAK 5 (Homo sapiens) (UniProt Q9P286); test: PAK5(h) Millipore kinase panel; conditions: Compound concentration 1.0 uM
[31] = target: Ribosomal protein S6 kinase alpha-3 (Homo sapiens) (UniProt P51812); test: Rsk2(h) Millipore kinase panel; conditions: Compound concentration 1.0 uM
[32] = target: Tyrosine-protein kinase Yes (Homo sapiens) (UniProt P07947); test: Yes(h) Millipore kinase panel; conditions: Compound concentration 1.0 uM
[33] = target: PAS domain-containing serine/threonine-protein kinase (Homo sapiens) (UniProt Q96RG2); test: PASK(h) Millipore kinase panel; conditions: Compound concentration 1.0 uM
[34] = target: Vascular endothelial growth factor receptor 1 (Homo sapiens) (UniProt P17948); test: Flt1(h) Millipore kinase panel; conditions: Compound concentration 1.0 uM
[35] = target: Dual specificity protein kinase TTK (Homo sapiens) (UniProt P33981); test: TTK(h) Millipore kinase panel; conditions: Compound concentration 1.0 uM
[36] = target: Muscarinic acetylcholine receptor M3 (Homo sapiens) (UniProt P20309); conditions: Compound concentration 10.0 uM
[37] = target: CDK12/Cyclin K (Homo sapiens) (UniProt O75909+Q9NYV4); test: CDK12/cyclinK(h) Millipore kinase panel; format: protein-complex assay; conditions: Compound concentration 1.0 uM
[38] = target: B1 bradykinin receptor (Homo sapiens) (UniProt P46663); conditions: Compound concentration 10.0 uM
[39] = target: Delta-type opioid receptor (Homo sapiens) (UniProt P41143); conditions: Compound concentration 10.0 uM
[40] = target: Mitogen-activated protein kinase 14 (Homo sapiens) (UniProt Q16539); test: SAPK2a(h) Millipore kinase panel; conditions: Compound concentration 1.0 uM
[41] = target: Aurora kinase A (Homo sapiens) (UniProt O14965); test: Aurora_A(h) Millipore kinase panel; conditions: Compound concentration 1.0 uM
[42] = target: Eukaryotic elongation factor 2 kinase (Homo sapiens) (UniProt O00418); test: eEF-2K(h) Millipore kinase panel; conditions: Compound concentration 1.0 uM
[43] = target: Protein kinase C alpha type (Homo sapiens) (UniProt P17252); test: PKCalpha(h) Millipore kinase panel; conditions: Compound concentration 1.0 uM
[44] = target: Mitogen-activated protein kinase kinase kinase 11 (Homo sapiens) (UniProt Q16584); test: MLK3(h) Millipore kinase panel; conditions: Compound concentration 1.0 uM
[45] = target: Dual specificity protein kinase CLK3 (Homo sapiens) (UniProt P49761); test: CLK3(h) Millipore kinase panel; conditions: Compound concentration 1.0 uM
[46] = target: CDK7/Cyclin H/MNAT1 (Homo sapiens) (UniProt P51946+P50613+P51948); test: CDK7/cyclinH/MAT1(h) Millipore kinase panel; format: protein-complex assay; conditions: Compound concentration 1.0 uM

Measured: inhibition

Sequence of Serine/threonine-protein kinase PAK 5 (Homo sapiens) (Q9P286 whole entry, looked up): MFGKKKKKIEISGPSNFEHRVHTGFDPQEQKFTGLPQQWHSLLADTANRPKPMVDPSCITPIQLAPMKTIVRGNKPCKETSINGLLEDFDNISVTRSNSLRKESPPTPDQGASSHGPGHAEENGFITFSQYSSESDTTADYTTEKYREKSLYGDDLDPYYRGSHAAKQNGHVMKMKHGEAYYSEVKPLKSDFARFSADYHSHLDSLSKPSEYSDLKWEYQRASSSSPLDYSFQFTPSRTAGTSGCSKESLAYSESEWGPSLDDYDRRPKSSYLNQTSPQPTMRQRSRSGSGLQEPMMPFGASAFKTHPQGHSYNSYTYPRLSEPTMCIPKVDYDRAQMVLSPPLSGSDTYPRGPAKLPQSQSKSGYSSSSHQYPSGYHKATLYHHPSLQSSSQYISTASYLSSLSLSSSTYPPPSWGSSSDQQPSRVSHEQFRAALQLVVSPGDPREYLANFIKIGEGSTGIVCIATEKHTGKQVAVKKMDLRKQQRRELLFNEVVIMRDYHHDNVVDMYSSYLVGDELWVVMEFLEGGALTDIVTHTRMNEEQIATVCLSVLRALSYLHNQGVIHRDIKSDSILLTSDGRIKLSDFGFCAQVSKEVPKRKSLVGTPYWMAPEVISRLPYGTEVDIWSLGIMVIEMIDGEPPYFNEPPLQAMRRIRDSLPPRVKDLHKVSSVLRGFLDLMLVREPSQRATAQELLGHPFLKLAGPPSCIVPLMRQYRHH
Sequence of Ribosomal protein S6 kinase alpha-3 (Homo sapiens) (P51812 whole entry): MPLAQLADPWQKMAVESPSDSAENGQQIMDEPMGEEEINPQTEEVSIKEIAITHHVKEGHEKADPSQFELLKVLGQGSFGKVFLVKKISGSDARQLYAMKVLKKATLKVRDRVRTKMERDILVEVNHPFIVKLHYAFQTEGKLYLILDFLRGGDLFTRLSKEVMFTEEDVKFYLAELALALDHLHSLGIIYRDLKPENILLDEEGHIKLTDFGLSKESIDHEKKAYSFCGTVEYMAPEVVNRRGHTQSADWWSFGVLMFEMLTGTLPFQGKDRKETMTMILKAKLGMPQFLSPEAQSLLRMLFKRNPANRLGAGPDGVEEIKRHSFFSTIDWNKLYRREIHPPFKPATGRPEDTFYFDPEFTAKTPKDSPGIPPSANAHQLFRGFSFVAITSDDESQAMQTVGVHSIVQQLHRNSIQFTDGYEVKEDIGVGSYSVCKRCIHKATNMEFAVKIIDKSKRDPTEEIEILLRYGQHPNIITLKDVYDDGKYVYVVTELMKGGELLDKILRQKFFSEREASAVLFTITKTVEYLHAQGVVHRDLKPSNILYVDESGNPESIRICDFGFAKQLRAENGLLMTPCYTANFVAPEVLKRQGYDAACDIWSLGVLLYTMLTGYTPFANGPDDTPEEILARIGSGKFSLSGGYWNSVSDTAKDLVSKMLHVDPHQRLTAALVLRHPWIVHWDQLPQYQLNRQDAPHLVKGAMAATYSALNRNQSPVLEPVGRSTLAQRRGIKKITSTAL
Sequence of Muscarinic acetylcholine receptor M3 (Homo sapiens) (P20309 whole entry, looked up): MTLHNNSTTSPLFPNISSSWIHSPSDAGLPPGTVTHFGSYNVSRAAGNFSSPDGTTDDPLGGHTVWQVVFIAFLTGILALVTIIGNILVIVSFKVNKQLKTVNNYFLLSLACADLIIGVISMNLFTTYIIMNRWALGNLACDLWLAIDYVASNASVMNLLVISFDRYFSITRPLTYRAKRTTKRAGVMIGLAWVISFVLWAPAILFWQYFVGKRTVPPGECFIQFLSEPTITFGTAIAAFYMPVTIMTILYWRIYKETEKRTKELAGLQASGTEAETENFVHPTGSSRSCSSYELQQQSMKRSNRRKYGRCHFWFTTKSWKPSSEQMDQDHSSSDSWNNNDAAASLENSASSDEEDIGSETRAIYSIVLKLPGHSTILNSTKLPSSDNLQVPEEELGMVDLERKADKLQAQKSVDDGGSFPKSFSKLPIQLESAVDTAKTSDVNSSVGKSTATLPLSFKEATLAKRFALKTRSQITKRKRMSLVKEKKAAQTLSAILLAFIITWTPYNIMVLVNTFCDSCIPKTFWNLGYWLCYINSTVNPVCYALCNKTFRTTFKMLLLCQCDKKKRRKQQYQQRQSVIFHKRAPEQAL
Sequence of Prostaglandin G/H synthase 1 (Homo sapiens) (P23219 whole entry): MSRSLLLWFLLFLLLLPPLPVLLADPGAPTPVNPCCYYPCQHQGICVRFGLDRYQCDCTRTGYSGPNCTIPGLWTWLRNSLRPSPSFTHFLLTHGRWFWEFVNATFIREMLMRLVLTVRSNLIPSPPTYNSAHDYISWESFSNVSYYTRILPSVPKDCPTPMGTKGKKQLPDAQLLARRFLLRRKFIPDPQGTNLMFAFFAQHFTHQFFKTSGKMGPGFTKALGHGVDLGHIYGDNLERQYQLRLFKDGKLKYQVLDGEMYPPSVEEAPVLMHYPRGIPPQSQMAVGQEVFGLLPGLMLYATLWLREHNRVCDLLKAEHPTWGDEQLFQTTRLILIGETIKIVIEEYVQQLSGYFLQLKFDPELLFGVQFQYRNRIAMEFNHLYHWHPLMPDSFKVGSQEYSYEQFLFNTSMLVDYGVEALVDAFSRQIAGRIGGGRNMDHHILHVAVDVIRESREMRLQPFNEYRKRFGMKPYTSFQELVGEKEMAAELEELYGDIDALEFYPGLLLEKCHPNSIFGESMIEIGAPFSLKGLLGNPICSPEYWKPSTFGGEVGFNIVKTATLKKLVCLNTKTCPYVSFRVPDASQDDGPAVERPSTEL
Sequence of Ribosomal protein S6 kinase alpha-1 (Homo sapiens) (Q15418 whole entry): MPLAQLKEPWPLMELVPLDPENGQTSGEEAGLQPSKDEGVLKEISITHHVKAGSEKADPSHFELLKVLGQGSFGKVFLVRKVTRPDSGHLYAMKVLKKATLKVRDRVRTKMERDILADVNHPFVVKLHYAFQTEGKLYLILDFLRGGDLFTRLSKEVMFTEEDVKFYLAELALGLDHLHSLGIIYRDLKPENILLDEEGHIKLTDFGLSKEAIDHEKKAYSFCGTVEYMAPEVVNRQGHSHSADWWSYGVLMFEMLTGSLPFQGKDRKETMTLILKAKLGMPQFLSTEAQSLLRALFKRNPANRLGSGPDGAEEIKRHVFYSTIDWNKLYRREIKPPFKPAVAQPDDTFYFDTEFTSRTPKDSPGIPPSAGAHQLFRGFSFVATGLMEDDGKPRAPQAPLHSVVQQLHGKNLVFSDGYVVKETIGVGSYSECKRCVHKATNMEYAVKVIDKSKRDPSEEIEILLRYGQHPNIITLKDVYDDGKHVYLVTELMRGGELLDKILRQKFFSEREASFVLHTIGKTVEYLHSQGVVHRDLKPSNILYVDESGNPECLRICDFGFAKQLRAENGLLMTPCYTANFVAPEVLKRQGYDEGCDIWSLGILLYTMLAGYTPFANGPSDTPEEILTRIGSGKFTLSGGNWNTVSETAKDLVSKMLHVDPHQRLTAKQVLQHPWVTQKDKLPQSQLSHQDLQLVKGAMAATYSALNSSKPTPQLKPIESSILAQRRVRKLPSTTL
Sequence of B1 bradykinin receptor (Homo sapiens) (P46663 whole entry): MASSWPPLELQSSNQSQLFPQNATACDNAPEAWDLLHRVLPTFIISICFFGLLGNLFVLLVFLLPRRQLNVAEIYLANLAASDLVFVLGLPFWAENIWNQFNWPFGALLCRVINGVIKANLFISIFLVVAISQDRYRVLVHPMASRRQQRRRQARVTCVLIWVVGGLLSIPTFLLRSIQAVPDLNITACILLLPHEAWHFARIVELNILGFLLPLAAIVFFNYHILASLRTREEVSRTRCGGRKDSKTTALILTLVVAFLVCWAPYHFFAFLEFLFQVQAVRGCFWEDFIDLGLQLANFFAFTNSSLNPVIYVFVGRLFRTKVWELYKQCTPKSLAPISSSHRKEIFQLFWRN
Sequence of Casein kinase I isoform epsilon (Homo sapiens) (P49674 whole entry, looked up, canonical isoform): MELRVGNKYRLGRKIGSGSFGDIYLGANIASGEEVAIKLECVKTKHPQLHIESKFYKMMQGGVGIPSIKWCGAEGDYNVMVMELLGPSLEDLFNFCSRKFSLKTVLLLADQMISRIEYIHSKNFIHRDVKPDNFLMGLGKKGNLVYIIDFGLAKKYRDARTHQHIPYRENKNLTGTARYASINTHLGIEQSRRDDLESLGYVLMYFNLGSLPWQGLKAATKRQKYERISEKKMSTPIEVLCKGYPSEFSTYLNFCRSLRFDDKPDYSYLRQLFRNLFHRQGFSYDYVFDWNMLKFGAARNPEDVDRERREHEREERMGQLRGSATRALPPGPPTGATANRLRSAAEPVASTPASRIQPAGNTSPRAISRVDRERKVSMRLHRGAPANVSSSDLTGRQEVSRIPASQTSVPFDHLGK
Sequence of Mitogen-activated protein kinase 14 (Homo sapiens) (Q16539 whole entry): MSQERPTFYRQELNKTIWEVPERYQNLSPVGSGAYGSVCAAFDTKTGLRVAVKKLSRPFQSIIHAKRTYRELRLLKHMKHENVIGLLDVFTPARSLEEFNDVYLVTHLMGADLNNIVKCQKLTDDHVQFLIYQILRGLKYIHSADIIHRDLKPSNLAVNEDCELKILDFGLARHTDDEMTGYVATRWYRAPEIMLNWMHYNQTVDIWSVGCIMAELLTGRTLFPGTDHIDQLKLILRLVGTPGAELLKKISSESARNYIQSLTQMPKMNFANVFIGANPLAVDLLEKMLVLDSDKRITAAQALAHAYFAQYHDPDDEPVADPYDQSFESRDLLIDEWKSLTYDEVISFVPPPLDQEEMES
Sequence of Dual specificity protein kinase CLK3 (Homo sapiens) (P49761 whole entry, looked up): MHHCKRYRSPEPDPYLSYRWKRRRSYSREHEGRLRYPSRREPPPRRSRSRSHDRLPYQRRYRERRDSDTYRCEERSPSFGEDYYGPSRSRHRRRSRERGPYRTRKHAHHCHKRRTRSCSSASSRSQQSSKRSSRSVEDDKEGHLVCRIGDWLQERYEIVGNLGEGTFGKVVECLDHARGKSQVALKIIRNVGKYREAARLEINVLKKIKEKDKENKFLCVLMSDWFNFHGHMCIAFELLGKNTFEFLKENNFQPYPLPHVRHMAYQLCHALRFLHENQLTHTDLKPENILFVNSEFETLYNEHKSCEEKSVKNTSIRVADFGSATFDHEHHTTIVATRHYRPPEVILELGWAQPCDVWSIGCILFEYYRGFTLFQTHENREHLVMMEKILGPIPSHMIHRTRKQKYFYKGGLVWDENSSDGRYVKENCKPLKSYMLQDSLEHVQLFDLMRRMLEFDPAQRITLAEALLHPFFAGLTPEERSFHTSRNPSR

CC[C@@H](Nc1c(C#N)c(-c2ccc(-c3cccc(C)c3F)cc2)nc2cnccc12)C(=O)O [BAY-091]
inactive: [1] 19% | [2] -6.26% | [3] -7.99% | [4] 3% | [5] 7.89% | [6] 18% | [7] 0.16% | [8] -0.44% | [9] 1.43% | [10] 4.3% | [11] 12% | [12] 3.77% | [13] 2% | ATR/ATRIP (Homo sapiens) 16.2% | [14] 13.4% | [15] 11.7% | [16] 27% | [17] -1% | [18] 5.32% | [19] 12.9% | [20] 12.8% | [21] -6.03% | [22] 3.34% | [23] 6.75% | [24] 8.44% | [25] 0.33% | [26] 14.8% | [27] 8.85% | [28] 4.02% | [29] 8.31% | [30] 1.42% | [31] 1.78% | [32] -3.76% | [33] 11.1% | [34] 56.8% | [35] -9.1% | [36] 0% | [37] 10.3% | [38] 0% | [39] 12.9% | [40] 2.76% | [41] 13.8% | [42] 5.5% | [43] 16.2% | [44] 21.1% | [45] 2.84% | [46] 0.3%

From ChEMBL document CHEMBL4800729 (2021)
